1 molecule from ChEMBL document CHEMBL1151397, “The Alkaloids of Stephania glabra” (1982) can be followed below.

Each structure is given as a SMILES string.

The experiment concerns Ileum. In words: Spasmolytic activity in guinea pig ileum assessed as blockade of muscle contractions at 25 ug. It is filed as functional, Cavia porcellus.

In the case of `COc1cc2c3c(c1OC)C1(C=CC(=O)C=C1)C[C@H]3N(C)CC2.Cl` [PRONUCIFERINE HYDROCHLORIDE], the Activity was determined as 75%.
